pEC50, pIC50: −log10 of the molar value. Like-named read-outs stand apart in the source and are kept apart here.
Assays:
[1] = biological target: human Werner helicase (WRN, amino acids 517-1235 with L1074F point mutation) (Homo sapiens (Human), UniProt Q14191, L1074F); assay: WRN (BV08) ADP-Glo assay; assay type: biochemical; conditions: human WRN (aa 517-1235, L1074F), read-out: ADP-Glo_hWRN_IC50
In short: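 ADP-Glo luminescence read after 60 min, 25 °C reaction of 0.15 nM WRN (517-1235, L1074F, Sf9-expressed, tag removed) with 0.1 nM DNA duplex and 5 μM ATP, following 15 min compound preincubation; 20 mM Bicine pH 7.5, 1% DMSO. IC50 from 3- or 4-parameter fit of % inhibition.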

[2] = test system: p21 induction in HCT 116 cells; assay: p21 induction in cells (In-Cell Western, p21/GAPDH ratio); assay type: cell-based; conditions: 24 h compound incubation, read-out: p21_EC50
In short: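 EC50 values come from nonlinear fits of percent activation, defined by the 800/700 nm p21-to-GAPDH ratio scaled between DMSO (low) and internal WRN inhibitor (high) controls. In-Cell Western read after 24 h compound exposure of HCT 116 cells at 37° C. Duplicate 11-point series, 2-fold steps, usually starting at 10 μM.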

Sequence of human Werner helicase (WRN, amino acids 517-1235 with L1074F point mutation) (Q14191 other isoform, or with tags, fused parts or gaps L1074F (already in the parent)): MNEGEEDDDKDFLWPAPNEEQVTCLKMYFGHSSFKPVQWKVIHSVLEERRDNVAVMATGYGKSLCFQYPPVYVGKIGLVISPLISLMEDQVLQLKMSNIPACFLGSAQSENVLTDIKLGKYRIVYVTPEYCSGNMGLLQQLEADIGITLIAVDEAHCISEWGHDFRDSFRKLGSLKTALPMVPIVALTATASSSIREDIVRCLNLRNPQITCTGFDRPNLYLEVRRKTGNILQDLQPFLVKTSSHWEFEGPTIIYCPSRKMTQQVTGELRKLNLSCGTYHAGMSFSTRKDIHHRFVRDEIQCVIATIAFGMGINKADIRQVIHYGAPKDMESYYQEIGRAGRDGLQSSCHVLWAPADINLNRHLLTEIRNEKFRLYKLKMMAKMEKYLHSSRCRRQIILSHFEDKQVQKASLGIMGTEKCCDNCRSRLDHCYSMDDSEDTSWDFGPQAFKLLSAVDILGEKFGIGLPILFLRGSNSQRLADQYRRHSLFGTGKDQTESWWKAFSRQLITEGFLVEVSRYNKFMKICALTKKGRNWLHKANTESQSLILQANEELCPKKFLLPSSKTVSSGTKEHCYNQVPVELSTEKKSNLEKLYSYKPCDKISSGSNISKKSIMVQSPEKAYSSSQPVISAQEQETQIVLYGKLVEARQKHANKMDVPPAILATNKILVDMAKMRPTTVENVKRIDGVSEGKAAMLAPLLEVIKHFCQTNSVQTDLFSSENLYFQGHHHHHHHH

Structure (SMILES)	pIC50 [1]	pEC50 ([2]; Homo sapiens)	pEC50 [2]
CCc1c(N2CCN(C(=O)c3c(OC)ncc(C)c3O)[C@H]3CC[C@@H]32)c(=O)c2nn(-c3ccnc(C)c3)nc2n1CC(=O)NC12CC(C3CC3)(C1)C2 [Compound I-74, N-{3-cyclopropylbicyclo[1.1.1]pentan-1-yl}-2-{5-ethyl-6-[(1S,6S)-5-(4-hydroxy-2-methoxy-5-methylpyridine-3-carbonyl)-2,5-diazabicyclo[4.2.0]octan-2-yl]-2-(2-methylpyridin-4-yl)-7-oxo-2H,4H,7H-[1,2,3]triazolo[4,5-b]pyridin-4-yl}acetamide]	7.30 to 8.30	≥ 6.30	
CCc1c(N2CCN(C(=O)c3c(OC)ncc(C4CCOC4)c3O)CC2)c(=O)c2nn(-c3ccnc(OC)c3)nc2n1CC(=O)NC12CC(C(C)C)(C1)C2 (centres unmarked) [Compound I-75, 2-(5-ethyl-6-{4-[4-hydroxy-2-methoxy-5-(oxolan-3-yl)pyridine-3-carbonyl]piperazin-1-yl}-2-(2-methoxypyridin-4-yl)-7-oxo-2H,4H,7H-[1,2,3]triazolo[4,5-b]pyridin-4-yl)-N-[3-(propan-2-yl)bicyclo[1.1.1]pentan-1-yl]acetamide]	7.30 to 8.30	5.70 to 6.30	
CCc1c(C2=C(C)CN(C(=O)c3ncnc(C)c3O)CC2)c(=O)c2nn(-c3ccnc(OC)c3)nc2n1CC(=O)NC12CC(C(C)C)(C1)C2 [Compound I-78, 2-{5-ethyl-6-[1-(5-hydroxy-6-methylpyrimidine-4-carbonyl)-5-methyl-1,2,3,6-tetrahydropyridin-4-yl]-2-(2-methoxypyridin-4-yl)-7-oxo-2H,4H,7H-[1,2,3]triazolo[4,5-b]pyridin-4-yl}-N-[3-(propan-2-yl)bicyclo[1.1.1]pentan-1-yl]acetamide]	7.30 to 8.30	5.30 to 5.70	
CCc1c(C2=CCN(C(=O)c3ncnc(C)c3O)CC2)c(=O)c2nn(-c3ccnc(OC)c3)nc2n1CC(=O)NC12CC(C(C)C)(C1)C2 [Compound I-79, 2-{5-ethyl-6-[1-(5-hydroxy-6-methylpyrimidine-4-carbonyl)-1,2,3,6-tetrahydropyridin-4-yl]-2-(2-methoxypyridin-4-yl)-7-oxo-2H,4H,7H-[1,2,3]triazolo[4,5-b]pyridin-4-yl}-N-[3-(propan-2-yl)bicyclo[1.1.1]pentan-1-yl]acetamide]	7.30 to 8.30	5.70 to 6.30	
CCc1c(N2CCN(C(=O)c3ncnc(C)c3O)[C@H]3CC[C@@H]32)c(=O)c2nn(-c3ccccn3)nc2n1CC(=O)NC12CC(C(C)C)(C1)C2 [Compound I-90, 2-{5-ethyl-6-[(1S,6S)-5-(5-hydroxy-6-methylpyrimidine-4-carbonyl)-2,5-diazabicyclo[4.2.0]octan-2-yl]-7-oxo-2-(pyridin-2-yl)-2H,4H,7H-[1,2,3]triazolo[4,5-b]pyridin-4-yl}-N-[3-(propan-2-yl)bicyclo[1.1.1]pentan-1-yl]acetamide]	7.30 to 8.30		≥ 6.30
CCc1c(N2CCN(C(=O)c3c(OC)ncc(C)c3O)[C@H]3CC[C@@H]32)c(=O)c2nn(C3=CCOCC3)nc2n1CC(=O)NC12CC(C(C)C)(C1)C2 [Compound I-92, 2-[2-(3,6-dihydro-2H-pyran-4-yl)-5-ethyl-6-[(1S,6S)-5-(4-hydroxy-2-methoxy-5-methylpyridine-3-carbonyl)-2,5-diazabicyclo[4.2.0]octan-2-yl]-7-oxo-2H,4H,7H-[1,2,3]triazolo[4,5-b]pyridin-4-yl]-N-[3-(propan-2-yl)bicyclo[1.1.1]pentan-1-yl]acetamide]	7.30 to 8.30		≥ 6.30
CCc1c(N2CCN(C(=O)c3c(OC)ncc(C)c3O)[C@H]3CC[C@@H]32)c(=O)c2nn(-c3ccnc(OC)c3)nc2n1CC(=O)NC1CC2(CCC2)C1 [Compound I-93, 2-{5-ethyl-6-[(1S,6S)-5-(4-hydroxy-2-methoxy-5-methylpyridine-3-carbonyl)-2,5-diazabicyclo[4.2.0]octan-2-yl]-2-(2-methoxypyridin-4-yl)-7-oxo-2H,4H,7H-[1,2,3]triazolo[4,5-b]pyridin-4-yl}-N-{spiro[3.3]heptan-2-yl}acetamide]	7.30 to 8.30	≥ 6.30	
CCc1c(N2CCN(C(=O)c3c(OC)ncc(C)c3O)[C@H]3CC[C@@H]32)c(=O)c2nn(-c3ccnc(C)c3)nc2n1CC(=O)NC12CC(C(C)C)(C1)C2 [Compound I-94, 2-{5-ethyl-6-[(1S,6S)-5-(4-hydroxy-2-methoxy-5-methylpyridine-3-carbonyl)-2,5-diazabicyclo[4.2.0]octan-2-yl]-2-(2-methylpyridin-4-yl)-7-oxo-2H,4H,7H-[1,2,3]triazolo[4,5-b]pyridin-4-yl}-N-[3-(propan-2-yl)bicyclo[1.1.1]pentan-1-yl]acetamide]	7.30 to 8.30	≥ 6.30	

More lines, now with the values ahead:

pIC50 [1]	pEC50 ([2]; Homo sapiens)	pEC50 [2]	Structure (SMILES)
≥ 8.30	≥ 6.30		CCc1c(N2CCN(C(=O)c3ncnc(C)c3O)[C@H]3CC[C@@H]32)c(=O)c2nn(-c3ccnc(OC)c3)nc2n1CC(=O)Nc1ccc(C(F)F)cc1Cl [Compound I-82, N-[2-chloro-4-(difluoromethyl)phenyl]-2-{5-ethyl-6-[(1S,6S)-5-(5-hydroxy-6-methylpyrimidine-4-carbonyl)-2,5-diazabicyclo[4.2.0]octan-2-yl]-2-(2-methoxypyridin-4-yl)-7-oxo-2H,4H,7H-[1,2,3]triazolo[4,5-b]pyridin-4-yl}acetamide]
≥ 8.30	≥ 6.30		CCc1c(N2CCN(C(=O)c3ncnc(C)c3O)[C@H]3CC[C@@H]32)c(=O)c2nn(-c3ccnc(OC)c3)nc2n1CC(=O)Nc1ccc(C(F)F)cc1F [Compound I-83, N-[4-(difluoromethyl)-2-fluorophenyl]-2-{5-ethyl-6-[(1S,6S)-5-(5-hydroxy-6-methylpyrimidine-4-carbonyl)-2,5-diazabicyclo[4.2.0]octan-2-yl]-2-(2-methoxypyridin-4-yl)-7-oxo-2H,4H,7H-[1,2,3]triazolo[4,5-b]pyridin-4-yl}acetamide]
7.30 to 8.30		≥ 6.30	CCc1c(N2CCN(C(=O)c3ncnc(C)c3O)[C@H]3CC[C@@H]32)c(=O)c2nn(-c3ccnc(C)c3)nc2n1CC(=O)NC12CC(C3CC3)(C1)C2 [Compound I-84, N-{3-cyclopropylbicyclo[1.1.1]pentan-1-yl}-2-{5-ethyl-6-[(1S,6S)-5-(5-hydroxy-6-methylpyrimidine-4-carbonyl)-2,5-diazabicyclo[4.2.0]octan-2-yl]-2-(2-methylpyridin-4-yl)-7-oxo-2H,4H,7H-[1,2,3]triazolo[4,5-b]pyridin-4-yl}acetamide]
7.30 to 8.30	≥ 6.30		CCc1c(N2CCN(C(=O)c3ncnc(C)c3O)[C@H]3CC[C@@H]32)c(=O)c2nn(-c3ccnc(OC)c3)nc2n1CC(=O)NC1(C)CC2(CCC2)C1 [Compound I-87, 2-{5-ethyl-6-[(1S,6S)-5-(5-hydroxy-6-methylpyrimidine-4-carbonyl)-2,5-diazabicyclo[4.2.0]octan-2-yl]-2-(2-methoxypyridin-4-yl)-7-oxo-2H,4H,7H-[1,2,3]triazolo[4,5-b]pyridin-4-yl}-N-{2-methylspiro[3.3]heptan-2-yl}acetamide]
7.30 to 8.30	5.70 to 6.30		CCc1c(N2CCN(C(=O)c3ncnc(C)c3O)[C@H]3CC[C@@H]32)c(=O)c2nn(-c3ccnc(OC)c3)nc2n1CC(=O)NC1CC2(CC(C)C2)C1 (stereo partly drawn) [Compound I-88, 2-{5-ethyl-6-[(1S,6S)-5-(5-hydroxy-6-methylpyrimidine-4-carbonyl)-2,5-diazabicyclo[4.2.0]octan-2-yl]-2-(2-methoxypyridin-4-yl)-7-oxo-2H,4H,7H-[1,2,3]triazolo[4,5-b]pyridin-4-yl}-N-{6-methylspiro[3.3]heptan-2-yl}acetamide]
7.30 to 8.30	≥ 6.30		CCc1c(N2CCN(C(=O)c3ncnc(C)c3O)[C@H]3CC[C@@H]32)c(=O)c2nn(-c3ccnc(OC)c3)nc2n1CC(=O)NC1CC2(CCCC2)C1 [Compound I-89, 2-{5-ethyl-6-[(1S,6S)-5-(5-hydroxy-6-methylpyrimidine-4-carbonyl)-2,5-diazabicyclo[4.2.0]octan-2-yl]-2-(2-methoxypyridin-4-yl)-7-oxo-2H,4H,7H-[1,2,3]triazolo[4,5-b]pyridin-4-yl}-N-{spiro[3.4]octan-2-yl}acetamide]
≥ 8.30	≥ 6.30		CCc1c(N2CCN(C(=O)c3c(OC)ncc(C)c3O)[C@H]3CC[C@@H]32)c(=O)c2nn(-c3ccnc(C)c3)nc2n1CC(=O)Nc1ccc(C(F)(F)F)cc1F [Compound I-95, 2-{5-ethyl-6-[(1S,6S)-5-(4-hydroxy-2-methoxy-5-methylpyridine-3-carbonyl)-2,5-diazabicyclo[4.2.0]octan-2-yl]-2-(2-methylpyridin-4-yl)-7-oxo-2H,4H,7H-[1,2,3]triazolo[4,5-b]pyridin-4-yl}-N-[2-fluoro-4-(trifluoromethyl)phenyl]acetamide]
≥ 8.30		≥ 6.30	CCc1c(N2CCN(C(=O)c3ncnc(C)c3O)[C@H]3CC[C@@H]32)c(=O)c2nn(-c3ccnc(C)c3)nc2n1CC(=O)Nc1ccc(C(F)(F)F)cc1Cl [Compound I-96, N-[2-chloro-4-(trifluoromethyl)phenyl]-2-{5-ethyl-6-[(1S,6S)-5-(5-hydroxy-6-methylpyrimidine-4-carbonyl)-2,5-diazabicyclo[4.2.0]octan-2-yl]-2-(2-methylpyridin-4-yl)-7-oxo-2H,4H,7H-[1,2,3]triazolo[4,5-b]pyridin-4-yl}acetamide]
